According to patent KR20170021349A, “다양한 질병의 치료를 위한 jnk 신호 전달 경로의 세포 투과성 펩타이드 억제자의 새로운 용도” (자이겐 인플라메이션 리미티드, priority 2014, dated 2017):
Where two headings read alike, the source gives them in different places.

Legend:
TC-3 cells [1] = assay: Cellular import of fluorescein-labelled TAT and TAT-IB1(s) peptides; assay type: cell-based
[2] = test system: recombinant JNK1, JNK2, JNK3; assay: Solid-phase kinase assay: JNK-mediated phosphorylation of c-Jun, ATF2, Elk1; assay type: biochemical; conditions: GST-Jun (aa 1-73), 0-250 μM
TC-3 cells [3] = assay: IL-1-induced pancreatic beta-cell apoptosis; assay type: cell-based; conditions: 1 μM single addition, 15 days IL-1
[4] = test system: endogenous JNK in HepG2 cells; assay: AlphaScreen kinase assay of endogenous IL-1-induced JNK activity; assay type: cell-based; conditions: IL-1-dependent JNK activity, Fig. 3d
[5] = test system: human foreskin fibroblasts (HFFs); assay: Neutral Red cytotoxicity assay; assay type: cell-based; conditions: 1, 2, 5 μM, 24 h
C57BL/6 mice [6] = assay: Bleomycin-induced acute lung inflammation (COPD model); assay type: in vivo, mouse
C57BL/6 mice [7] = assay: Bleomycin-induced lung fibrosis, day 10; assay type: in vivo, mouse; conditions: for lymphocyte recruitment and total cell number in BAL: 3x in 10 days; for decrease of inflammatory cell accumulation, fibrotic areas, loss of lung architecture (histology): day 10
hAPP Tg mice = assay: hAPP transgenic mouse model of Alzheimer's disease; assay type: in vivo
porcine islets = assay: Porcine islet isolation; assay type: cell-based, pig
Wistar rats [8] = assay: Puromycin aminonucleoside (PAN)-induced nephropathy, 56 days; assay type: in vivo, rat
rat pancreatic islets [9] = assay: Rat islet isolation after warm ischemia; assay type: cell-based
rat pancreatic islets [10] = assay: Rat islets, 4 h hypoxia; assay type: cell-based; conditions: 100 μM
human islets = assay: Human islets, 24 h hypoxia; assay type: cell-based; conditions: 100 μM
Wistar rats [11] = assay: Ligature-induced periodontitis; assay type: in vivo, rat; conditions: day 17
[12] = test system: Huh7 tumours in nude mice; assay: Huh7 human liver cancer xenograft; assay type: in vivo, mouse; conditions: 5 mg/kg i.p. twice weekly, 4 weeks
[13] = test system: PC-3 tumours in Balb/c nude mice; assay: Subcutaneous PC-3 human prostate tumour; assay type: in vivo, mouse; conditions: 0.1 and 1 mg/kg/inj Q4Dx4, dose-dependent, more marked at 1 mg/kg
Sprague-Dawley rats = assay: Bilateral renal ischemia reperfusion, histology; assay type: in vivo, rat
[14] = test system: female Sprague-Dawley rats; assay: CYP-induced acute cystitis, intravenous treatment, visceral pain; assay type: in vivo, rat; conditions: 2 mg/kg i.v.
[15] = test system: primary mouse cortical neurons; assay: JNK activation in cortical neurons under H2O2 oxidative stress; assay type: cell-based; conditions: 5 μM pre-treatment; 1 mM H2O2 15 min
[16] = test system: primary mouse cortical neurons (WT); assay: Aβ42-induced stress/apoptosis in WT cortical neurons; assay type: cell-based
[17] = test system: primary cortical neurons of PKR-/- mice; assay: Aβ42-induced stress/apoptosis in PKR-/- cortical neurons; assay type: cell-based, mouse
[18] = Distribution of C14-labelled peptide, 72 h after s.c., i.v., i.p.; assay type: in vivo, mouse; conditions: 1 mg/kg, Fig. 25
THP-1 cells = assay: LPS-induced cytokine release; assay type: cell-based; conditions: Fig. 27 A-C
Jurkat cells = assay: PMA & ionomycin-induced cytokine production; assay type: cell-based; conditions: Fig. 27 D-F
murine macrophages = assay: LPS-induced cytokine release in primary cells; assay type: cell-based, mouse; conditions: Fig. 28 A-C, non-toxic concentrations
[19] = Ocular MTD study, subconjunctival; assay type: in vivo, rat
[20] = Ocular MTD study, subconjunctival; assay type: in vivo, rabbit
[21] = Stability of stock and diluted solutions; assay type: physicochemical
[22] = 10 μM pre-treatment, 2 μM Aβ42 5 h (Example 49)
[23] = peptide pre-treatment 1 h (XG-102 10 μM), 2 μM Aβ42
[24] = dual PKR and JNK inhibition, 10 μM

NH2-DQSRPVQPFLNLTTPRKPRPPRRRQRRKKRG-COOH (H-DQSRPVQPFLNLTTPRKPRPPRRRQRRKKRG-OH; also: D-amino acids (positions not given here)) [XG-102]
time to enter cells (TC-3 cells [1]; 1 μM labelled peptide): < 5 분 | stability inside cells (TC-3 cells [1]; time course): 극도로 안정하다 | fold less efficient than L-TAT-IB1(s) in decreasing JNK-mediated c-Jun phosphorylation [2]: 10-20 배 | long-term protection against IL-1-induced cell death (TC-3 cells [3]): 보호를 부여할 수 있었으나 | inhibition of JNK activity compared with L-JNKI [4]: 보다 효과적으로 JNK 활성을 억제한다 | cytotoxicity [5]: 관찰되지 않았으며 | neutrophil recruitment or other cell types in BAL (C57BL/6 mice [6]; 0.001 mg/kg s.c. single dose, 24 h): 영향을 미치지 않았다 | neutrophil recruitment and total cell number in BAL (C57BL/6 mice [6]; 0.1 mg/kg s.c. single dose, 24 h): 현저하게 감소시켰다 | lung MPO level (C57BL/6 mice [6]; MPO not induced by bleomycin): 영향을 주지 않았다 | TNF level in BALF (C57BL/6 mice [6]; TNF very low after BLM): 감소하는 경향이 관찰되었다 | lymphocyte recruitment and total cell number in BAL (C57BL/6 mice [7]; 0.001 mg/kg s.c.): 현저하게 감소시켰다 | decrease of inflammatory cell accumulation, fibrotic areas, loss of lung architecture (histology) (C57BL/6 mice [7]; 0.001 mg/kg): 관찰되었으나 | lymphocyte recruitment and total cell number in BAL (C57BL/6 mice [7]; 0.1 mg/kg s.c.): 효과가 없었다 | decrease of inflammatory cell accumulation, fibrotic areas, loss of lung architecture (histology) (C57BL/6 mice [7]; 0.1 mg/kg): 관찰되지 않았다 | spatial learning in Morris Water Maze (hAPP Tg mice; 0.1 mg/kg every 2 wk or 10 mg/kg every 3 wk s.c., 4 months): 크게 영향을 받지 않았다 | brain Aβ1-42 level, Triton X-100 fraction (hAPP Tg mice; 0.1 mg/kg, p<0.05 vs vehicle): 현저한 감소를 나타내었다 | cortical 6E10 IR plaque load (hAPP Tg mice; 10 mg/kg vs vehicle): 비히클에 비해 증가하였으나 | brain homogenate Aβ1-40 levels (hAPP Tg mice; ELISA, 4 fractions): 영향을 미치지 않았다 | CSF Aβ1-40 and Aβ1-42 levels (hAPP Tg mice; p<0.01 at 10 mg/kg, <0.05 at 0.1 mg/kg): 현저하게 감소되었다 | number and area % of hippocampal ThioflavinS-positive plaques (hAPP Tg mice; p<0.05 at 10 mg/kg, p<0.01 at 0.1 mg/kg): 음성적인 투여량 의존적 감소를 유도함 | isolations with OCR/DNA above cut-off, successfully transplanted into NHPs (porcine islets): 6/6 | relative c-fos gene expression (porcine islets; 10 μM): 감소시키고 | JNK activation during isolation (porcine islets; 10 μM in pancreas and isolation solutions): 차단하고 | viability of freshly isolated islets (OCR/DNA, ATP/protein) (porcine islets; 10 μM vs paired untreated control): 통계적으로 현저하고 중요한 영향을 가짐 | effect on PAN-induced glomerulosclerosis (Wistar rats [8]; 1 mg/kg, 7 weekly i.v. injections): 효과가 없었다 | effect on PAN-induced glomerulosclerosis (Wistar rats [8]; 4 mg/kg, 4 i.v. injections from day 21): 강한 효과를 초래하였다 | PAN-induced glomerulosclerosis (Wistar rats [8]; 7 weekly i.v. injections, 2 and 4 mg/kg): 용량 의존적으로 현저하게 감소시키는 | decrease in plasma LDL (Wistar rats [8]; especially 4 mg/kg groups): 현저하는 않더라도 관찰되었다 | effect on body weight vs PAN/saline (Wistar rats [8]; rat, in vivo): 관찰되지 않았다 | islet function (static insulin secretion) after 18 h culture (rat pancreatic islets [9]; 15-min ischemia): 섬 기능에 영향을 미치지 않았다 | glucose-induced insulin secretion vs ischemic rats (rat pancreatic islets [9]; 30-min ischemia, 100 μM): 더 높았으며 | islet apoptosis and necrosis (rat pancreatic islets [9]; 30-min ischemia, 100 μM): 세포 자멸 및 괴사를 감소시키는 | JNK and PAF2 phosphorylation induced by 15-min ischemia (rat pancreatic islets [9]; Western blot, Fig. 56): 투여량 의존적으로 감소되는 | hypoxia-induced phosphorylation of JNK and JUN (rat pancreatic islets [10]; 1 h pre-treatment + 4 h hypoxia): 인산화를 억제하지 않았다 | islet apoptosis and necrosis (rat pancreatic islets [10]; normoxia and hypoxia): 감소되었다 | hypoxia-induced islet apoptosis (human islets): 세포 자멸을 감소시키는 | islet necrosis (human islets; normoxia and hypoxia): 괴사를 감소시키는 | alveolar bone height loss (ABHL) (Wistar rats [11]): 골 파괴가 덜 심함 | IL1-β expression vs placebo (Wistar rats [11]; gingival tissue ELISA): 현저하게 감소되었다 | gingival inflammation (GI) level (Wistar rats [11]; single intragingival dose day 10): GI 수준을 강하게 감소시켰다 | tumour growth [12]: 종양 성장을 현저하게 감소시켰다 | mean tumour volume over time [13]: 종양 부피의 감소 | mean tubular epithelial degeneration/necrosis score (0-4) (Sprague-Dawley rats; 2 mg/kg i.v. 20 min after reperfusion, 24 h, IR/vehicle 3.45 ± 0.52): 2.67 ± 0.65 | animals with degeneration/necrosis score 2 (Sprague-Dawley rats; 2 mg/kg i.v., IR/vehicle 0/11): 5/12 | mean basophilic tubules score (0-4) (Sprague-Dawley rats; 2 mg/kg i.v., IR/vehicle 1.36 ± 0.67): 1.33 ± 0.65 | tubular cast score (0-4) (Sprague-Dawley rats; 2 mg/kg i.v., IR/vehicle 3.00 ± 0.00): 2.50 ± 0.52 | animals with degeneration/necrosis score 4 (Sprague-Dawley rats; 2 mg/kg i.v., IR/vehicle 5/11): 1/12 | total tubular score (Sprague-Dawley rats; 2 mg/kg i.v., IR/vehicle 7.82 ± 0.98): 6.50 ± 0.80 | nociceptive threshold vs vehicle ([14]; 24 h after CYP, p<0.01): 현저하게 증가하였다 | AUC 1-8 g (allodynia) vs vehicle ([14]; p<0.001): 현저하게 감소되었다 | AUC 8-60 g (hyperalgesia) vs vehicle ([14]; p<0.001): 현저하게 감소되었다 | nociceptive scores vs vehicle ([14]; p<0.001): 현저하게 감소시켰다 | JNK activity (pJNK/JNK) induced by H2O2 [15]: JNK 활성을 억제하였다 | JNK activity (pJNK/JNK) [16, 22]: 변화는 관찰되지 않았다 | decrease of apoptosis (cleaved PARP) [16, 22]: 37% | decrease of caspase 3 activity ([16]; 10 μM, 2 μM Aβ42): 71% | decrease of cleaved PARP expression level ([16]; 10 μM, 2 μM Aβ42): 55% | decrease of cleaved caspase 3 expression level ([16]; 10 μM, 2 μM Aβ42): 93% | change of c-Jun expression vs stressed neurons without peptide [16, 23]: -65% | change of c-Jun phosphorylation vs stressed neurons without peptide [16, 23]: -74% | decrease of PARP expression level vs treated WT neurons [17, 24]: 93% | decrease of caspase 3 activity vs treated WT neurons [17, 24]: 87% | decrease of cleaved caspase 3 vs treated WT neurons [17, 24]: 83% | change of JNK activation ([17]; peptide pre-treatment (XG-102 10 μM), 2 μM Aβ42): -35% | c-Jun activation ([17]; peptide pre-treatment, 2 μM Aβ42): 변화시키지 않았다 | tissue accumulation [18]: 간, 비장 및 골수 대부분에서 XG-102 펩타이드의 축적 | LPS-induced TNFa, IL-6, MCP-1 release (THP-1 cells): 사이토카인 방출을 억제한다 | PMA & ionomycin-induced IFNg, IL-6, IL-2 production (Jurkat cells): 사이토카인 방출을 억제한다 | LPS-induced TNFa, IL-6, Rantes release (murine macrophages): 사이토카인 방출을 억제한다 | NOAEL [19]: ~20 µg | NOAEL [20]: ~600 µg | stability of diluted formulations for animal dosing ([21]; 2-4°C): 24 시간 | stability of stock solution (1 mM) ([21]; about -80°C): 3 개월 | stability of stock solution (10 mM in water) ([21]; about -80°C): ≥ 100 일 | stability of diluted formulations for animal dosing ([21]; room temperature): 24 시간 | stability in saline ([21]; room temperature, 10 μg/ml - 50 mg/ml): 8 시간
